Read-outs that look alike come from different tables or passages of the source.
What was measured:
[1] = tested on: genotype 1b (Con-1) HCV replicon; test: HCV replicon luciferase assay; assay type: cell-based; conditions: Hepatitis C virus, 72 h, Huh-7 cells with genotype 1b HCV replicon, Renilla luciferase, 3 days incubation
Procedure: Cell lines. The cell lines used to evaluate compounds consist of a human hepatocyte derived cell line (Huh-7) that constitutively expresses a genotype 1b (Con-1) HCV replicon or a genotype 1b (Con-1) HCV replicon with an asparagine replacing the cysteine at amino acid 316, or a genotype 2a (JFH-1) replicon, containing a Renilla luciferase reporter gene. These cells were maintained in Dulbecco's modified Eagle medium (DMEM) containing 10% FBS, 100 U/mL penicillin/streptomycin and 1.0 mg/mL G418.
HCV replicon luciferase assay. To evaluate compound efficacy, titrated compounds were transferred to sterile 384-well tissue culture treated plates, and the plates were seeded with HCV replicon cells (50 μL at a density of 2.4×10^3 cells/well) in DMEM containing 4% FBS (final DMSO concentration at 0.5%). After 3 days incubation at 37° C., cells were analyzed for Renilla Luciferase activity using the EnduRen substrate (Promega cat #E6485) according to the manufacturer's directions. Briefly, the EnduRen substrate was diluted in DMEM and then added to the plates to a final concentration of 7.5 μM. The plates were incubated for at least 1 h at 37° C. then read on a Viewlux Imager (PerkinElmer) using a luminescence program. The 50% effective concentration (EC50) was calculated using the four-parameter logistic formula noted above.
Compound EC50 data is expressed as A: <100 nM; B=100-1000 nM; C>1000 nM).

[2] = tested on: HCV; conditions: cited from earlier work
[3] = tested on: HCV; conditions: combination therapy; cited from earlier work

Row | Compound | EC50 ([1]; read-out: EC50 1b (class)) [µM] | other results
1 | CCN(C#N)c1cc2oc(-c3ccc(F)cc3)c(C(=O)NC)c2cc1-c1cccc(C(=O)NC(C)(C)C#N)c1 [Compound 1007] | < 0.1 | EC50 ([1]; read-out: EC50 (μM) 1b): 0.0041 µM
2 | CCN(C#N)c1cc2oc(-c3ccc(F)cc3)c(C(=O)NC)c2cc1-c1ccc(OC)c(C(=O)NC(CF)(CF)CF)c1 [Compound 1003] | < 0.1 | 
3 | CNC(=O)c1c(-c2ccc(F)cc2)oc2cc(N(CCO)S(C)(=O)=O)c(C3CC3)cc12 [HCV-796] |  | hepatic toxicity ([2]; extended dosing of the combination regimens): hepatic toxicity observed during extended dosing of the combination regimens; HCV RNA levels in patients ([2]; patients, single agent or combined with interferon and ribavirin): has shown an ability to reduce HCV RNA levels in patients
4 | CCN(C#N)c1cc2oc(-c3ccc(F)cc3)c(C(=O)NC)c2cc1-c1cccc(C(=O)NC(C)(C)COC)c1 [Compound 1006] | < 0.1 | 
5 | CCN(C#N)c1cc2oc(-c3ccc(F)cc3)c(C(=O)NC)c2cc1-c1ccc(OC)c(C(=O)NC2(C#N)CCCC2)c1 [Compound 1008] | < 0.1 | 
6 | CCN(C#N)c1cc2oc(-c3ccc(F)cc3)c(C(=O)NC)c2cc1-c1cccc(C(=O)NC(C)(CO)CO)c1 [Compound 1011] | 0.1 to 1 | 
7 | CCN(C#N)c1cc2oc(-c3ccc(F)cc3)c(C(=O)NC)c2cc1-c1cccc(C(=O)NC2(c3ncccn3)CC2)c1 [Compound 1013] | < 0.1 | 
8 | CCN(C#N)c1cc2oc(-c3ccc(F)cc3)c(C(=O)NC)c2cc1-c1cccc(C(=O)NCC(C)(C)c2ccccc2)c1 [Compound 1001] | < 0.1 | 
9 | CCN(C#N)c1cc2oc(-c3ccc(F)cc3)c(C(=O)NC)c2cc1-c1cccc(C(=O)NC(C)(C)CC(C)O)c1 (stereo not shown) [Compound 1004] | < 0.1 | EC50 ([1]; read-out: EC50 (μM) 1b): 0.013 µM
10 | alpha-interferon and ribavirin |  | sustained efficacy in patients [3]: 40%
11 | [2H]C([2H])([2H])C(NC(=O)c1cc(-c2cc3c(C(=O)NC)c(-c4ccc(F)cc4)oc3cc2N(C#N)CC)ccc1OC)(C([2H])([2H])[2H])C([2H])([2H])[2H] [Compound 1017] | < 0.1 | EC50 ([1]; read-out: EC50 (μM) 1b): 0.0039 µM
12 | CCN(C#N)c1cc2oc(-c3ccc(F)cc3)c(C(=O)NC)c2cc1-c1ccc(OC)c(C(=O)NC(C)(C#N)C(C)C)c1 (stereo not shown) [Compound 1014] | < 0.1 | 
13 | CCN(C#N)c1cc2oc(-c3ccc(F)cc3)c(C(=O)NC)c2cc1-c1cccc(C2=NC(C)(C)C(=O)O2)c1 [Compound 1012] | 0.1 to 1 | EC50 ([1]; read-out: EC50 (μM) 1b): 0.36 µM
14 | CCN(C#N)c1cc2oc(-c3ccc(F)cc3)c(C(=O)NC)c2cc1-c1cccc(C(=O)NC2(C(F)(F)F)CC2)c1 [Compound 1010] | < 0.1 | 
15 | CCN(C#N)c1cc2oc(-c3ccc(F)cc3)c(C(=O)NC)c2cc1-c1cccc(C(=O)NC(C)(C)CO)c1 [Compound 1005] | < 0.1 | 
16 | CCN(C#N)c1cc2oc(-c3ccc(F)cc3)c(C(=O)NC)c2cc1-c1ccc(F)c(C(=O)NC2(c3ncccn3)CC2)c1 [Compound 1009] | < 0.1 | 
17 | CCN(C#N)c1cc2oc(-c3ccc(F)cc3)c(C(=O)NC)c2cc1-c1cccc(C(=O)NC(C)(C)C(=O)OC)c1 [Compound 1016] | < 0.1 | 
18 | CCN(C#N)c1cc2oc(-c3ccc(F)cc3)c(C(=O)NC)c2cc1-c1cccc(C(=O)NCC(F)(F)C(F)(F)C(F)(F)C(F)(F)F)c1 [Compound 1002] | < 0.1 | EC50 ([1]; read-out: EC50 (μM) 1b): 0.047 µM
19 | CCN(C#N)c1cc2oc(-c3ccc(F)cc3)c(C(=O)NC)c2cc1-c1cccc(C(=O)NC2(C#N)CCC2)c1 [Compound 1015] | < 0.1 | 
